From patent publication US12662451B2, “Chemical compounds and uses thereof” (GLAXOSMITHKLINE INTELLECTUAL PROPERTY (NO.4) LIMITED, priority 2023, dated 2026)
Like-named read-outs stand apart in the source and are kept apart here.

What was measured:
[1] = test system: SW48 human colorectal cancer cells (MSI-H cancer cells)
[2] = target: T1, recombinant full-length WRN protein (1-1432) (Homo sapiens, UniProt Q14191); assay: WRN unwinding activity, fluorogenic 384-well assay (Example A); type: biochemical; conditions: WRN unwinding activity, Table 2
T1 construct: recombinant full-length WRN protein (1-1432)
In short: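 200 pM enzyme (2× stock) preincubated with compound 4 h at ambient temperature, then 200 μM ATP and 12 nM quenched TAMRA-labelled dsDNA (2× stocks) added for 60 min; EDTA-quenched. Buffer 25 mM Tris pH 8.0, 5 mM NaCl, 2 mM MgCl2. Fluorescence at 525/598 nm; pIC50 from four-parameter fit.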

[3] = test system: SW48 human colorectal cancer cells; assay: Calculated free drug potency in SW48 cell assay, corrected with media free fraction (Example C); type: cell-based; conditions: Homo sapiens, SW48, SW48 pCC50 corrected with measured free fraction in cell assay media
In short: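 Compound spiked at nominal 1 μM into cell assay medium and dialysed against PBS (100 mM sodium phosphate, 150 mM NaCl, pH 7.4) by rapid equilibrium dialysis, 4 h, 37 °C, shaking. Percent unbound from LC-MS/MS peak area ratios (240 min vs 0 min); cell assay concentrations corrected by this free fraction.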

[4] = test system: SW48 human colorectal cancer cells (MSI-H cancer cells); assay: SW48 cell viability, CellTiter-Glo, 120 hours (Example B); conditions: Homo sapiens
[5] = Cell culture media unbound percentage and stability by rapid equilibrium dialysis (Example C); type: in vitro ADME; conditions: bovine, cell assay medium (RPMI-1640 with 10% fetal bovine serum), pH 7.4, rapid equilibrium dialysis, 4 hours at 37° C., read-out: Cell Culture Media Binding (% unbound)
In short: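 Compound spiked into cell culture medium at nominal 1 μM and dialysed against PBS (100 mM sodium phosphate + 150 mM NaCl, pH 7.4) by rapid equilibrium dialysis, triplicate, 4 h at 37° C with shaking. LC-MS/MS peak area ratios gave percent unbound (receiver/donor) and percent stability (240 min vs 0 min).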

[6] = test system: SW48 human colorectal cancer cell line xenografts; assay: In vivo efficacy in mouse model bearing SW48 xenografts (Example D); conditions: 30 mpk daily oral, 23rd day, SW48 xenograft, female nude mice
Procedure: In Viva Efficacy Study of Test Compounds in Mouse Model Bearing SW48 Human Colorectal Cancer Cell Line Xenografts
Experiments were performed with female Crl:Nu-Foxn1^nu nude mice. Animals were housed under optimized hygienic condition with food and water at libitum and a 12 h:12 h light:dark cycle. Animals were allowed to acclimatize for at least 4 days before being enrolled in the experimental design.
SW48 human colorectal cancer cells (RRID:CVCL1724) were obtained from ATCC. The cells were cultured in RPMI 1640 with 10% Fetal Bovine Serum at 37° C. in atmosphere of 5% CO2 in air. To establish SW48 xenografts, cells were harvested and resuspended in serum free RPM11640 and Matrigel before inoculation and 5×10^6 SW48 tumor cells were injected subcutaneously in 100 μL volume using 27G1/2 needle. Cells were inoculated in the right hind flank of the animals.
Post cell inoculation, tumor growth was monitored daily, and animals were randomized into treatment groups (n=10/group) once the tumor volume reached an appropriate size (80-150 mm^3). Throughout the treatment period, both tumor volume and body weight were measured approximately twice a week. The tumor size, in mm^3, was computed using the formula: 0.5×L×W^2, where W=width and L=length of the tumor. To prepare a test compound for oral administration, between 30-120 mg of the test compound was dissolved in a vehicle solution consisting of 0.5% Methycellulose (cp 400) and 0.5% Tween 80. The compound was freshly prepared one hour prior to daily administration. If turbidity was observed, the solution was vortexed at over 2000 rpm for 10 minutes and mixed with a 1 mL syringe. The resulting solution formulation was utilized for in vivo studies.
Animals received either a vehicle or test compounds at dosage of 30 or 100 mg/kg daily through oral gavage (10 ml/kg). Body weight was measured twice a week using the Ohaus electronic scale (STX421) and the data was automatically added to the study log. Moreover, daily clinical observations were performed to closely monitor the animals. Tumor growth inhibition was computed using the following formula:
[formula] where T=current group value; T0=Current group initial value; C=Control group Value; C0=control group initial value.
Data of tumor volume were exported and analyzed in GraphPad Prism (9.5). The analysis included a two-way ANOVA test, comparing the vehicle control vs. treatments at different time points, followed by a Tukey HSD post hoc test.
The calculation of tumor regression was conducted as per the following formula:
[formula] where Day 0=treatment start day; Δ tumor volume=mean tumor volume on the evaluation day—mean tumor volume Day 0.

T1 sequence (Q14191 whole entry): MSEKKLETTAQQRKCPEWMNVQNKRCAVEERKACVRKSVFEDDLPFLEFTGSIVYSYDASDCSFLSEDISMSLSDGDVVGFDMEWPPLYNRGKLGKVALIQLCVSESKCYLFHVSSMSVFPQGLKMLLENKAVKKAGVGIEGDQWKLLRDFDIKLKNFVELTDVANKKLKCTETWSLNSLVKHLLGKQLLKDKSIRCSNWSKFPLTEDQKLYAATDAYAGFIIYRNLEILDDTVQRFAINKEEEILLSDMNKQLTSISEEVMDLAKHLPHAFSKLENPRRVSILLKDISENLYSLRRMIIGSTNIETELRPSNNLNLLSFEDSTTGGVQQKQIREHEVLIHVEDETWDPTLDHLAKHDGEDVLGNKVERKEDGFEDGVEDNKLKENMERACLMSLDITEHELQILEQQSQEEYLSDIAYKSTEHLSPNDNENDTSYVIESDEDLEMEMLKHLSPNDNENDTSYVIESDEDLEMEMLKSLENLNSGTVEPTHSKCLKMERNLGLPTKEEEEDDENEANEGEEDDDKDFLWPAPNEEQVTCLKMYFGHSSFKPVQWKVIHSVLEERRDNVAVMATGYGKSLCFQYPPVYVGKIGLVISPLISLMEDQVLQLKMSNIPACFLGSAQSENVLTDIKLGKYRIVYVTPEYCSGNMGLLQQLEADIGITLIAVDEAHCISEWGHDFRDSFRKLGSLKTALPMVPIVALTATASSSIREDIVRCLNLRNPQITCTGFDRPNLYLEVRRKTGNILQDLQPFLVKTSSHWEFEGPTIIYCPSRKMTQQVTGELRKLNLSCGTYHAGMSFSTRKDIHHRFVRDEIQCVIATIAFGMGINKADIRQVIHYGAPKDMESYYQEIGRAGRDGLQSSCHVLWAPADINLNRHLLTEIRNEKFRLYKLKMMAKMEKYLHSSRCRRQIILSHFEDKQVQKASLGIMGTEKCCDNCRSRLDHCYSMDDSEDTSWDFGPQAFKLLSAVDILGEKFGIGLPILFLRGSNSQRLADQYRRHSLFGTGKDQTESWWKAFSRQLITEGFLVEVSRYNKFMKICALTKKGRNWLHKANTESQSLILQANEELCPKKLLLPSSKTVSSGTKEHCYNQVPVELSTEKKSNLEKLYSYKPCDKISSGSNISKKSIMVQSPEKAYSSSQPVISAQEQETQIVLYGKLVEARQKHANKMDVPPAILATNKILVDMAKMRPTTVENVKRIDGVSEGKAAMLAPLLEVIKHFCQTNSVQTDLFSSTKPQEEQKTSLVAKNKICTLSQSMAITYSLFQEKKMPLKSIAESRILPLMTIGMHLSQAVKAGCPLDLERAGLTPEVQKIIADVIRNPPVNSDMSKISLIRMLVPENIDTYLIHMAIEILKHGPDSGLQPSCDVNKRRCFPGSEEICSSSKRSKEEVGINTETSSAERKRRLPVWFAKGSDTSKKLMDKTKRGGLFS

4 hr UNW pIC50 [2]	IC50 ([2]; 4 hr, read-out: 4 hr UNW pIC50 (converted)) [nM]	fraction unbound at 4 h, 1 µM [5]	SMILES	SW48 pCC50 [1]	CC50 [3] [nM]	CC50 ([4]; SW48, 120 h, read-out: SW48 pCC50, SW48 cell viability, 120 hours incubation (converted), Table 2) [nM]	CC50 ([4]; SW48, read-out: SW48 pCC50, measured potency from Example B, as repeated in Table 3 (converted)) [nM]	mean tumor regression [6] [%]
9.2			Cc1nc2cc(S(=O)(=O)Nc3ccc([C@H]4CCC[C@@H](C(=O)Nc5ccc(C(F)(F)F)cc5F)[C@@H]4C(=O)O)cc3)ccc2[nH]1 (relative stereo) [Example 259, rel-(1R,2R,6S)-2-((2-fluoro-4-(trifluoromethyl)phenyl)carbamoyl)-6-(4-((2-methyl-1H-benzo[d]imidazole)-5-sulfonamido)phenyl)cyclohexane-1-carboxylic acid]	5.4				
5.7			Cc1nc2cc(S(=O)(=O)N(C)c3ccc([C@H]4CCC[C@@H](COc5ccc(C(F)(F)F)cc5)[C@@H]4C(=O)O)cc3)cc([C@@H]3CCCNC3)c2n1C.Cl (stereo in doubt) [Example 210, rel-(1R,2R,6S)-2-((4-(trifluoromethyl)phenoxy)methyl)-6-(4-((N,1,2-trimethyl-7-((S)-piperidin-3-yl)-1H-benzo[d]imidazole)-5-sulfonamido)phenyl)cyclohexane-1-carboxylic acid, hydrochloride]	4.9				
	5.01	0.103	Cc1nc2cc(S(=O)(=O)N(C)c3ccc([C@H]4C[C@@H](N5CCC(F)(F)C5)C[C@@H](C(=O)Nc5ccc(C(F)(F)F)cc5F)[C@@H]4C(=O)O)cc3)ccc2n1C [Example 306, (1R,2R,4R,6S)-4-(3,3-difluoropyrrolidin-1-yl)-2-((2-fluoro-4-(trifluoromethyl)phenyl)carbamoyl)-6-(4-((N,1,2-trimethyl-1H-benzo[d]imidazole)-5-sulfonamido)phenyl)cyclohexane-1-carboxylic acid]		10.2	100	100	−73.2

SMILES	4 hr UNW pIC50 [2]	IC50 ([2]; 4 hr, read-out: 4 hr UNW pIC50 (converted)) [nM]	fraction unbound at 4 h, 1 µM [5]	SW48 pCC50 [1]	CC50 [3] [nM]	CC50 ([4]; SW48, 120 h, read-out: SW48 pCC50, SW48 cell viability, 120 hours incubation (converted), Table 2) [nM]	CC50 ([4]; SW48, read-out: SW48 pCC50, measured potency from Example B, as repeated in Table 3 (converted)) [nM]	mean tumor regression [6] [%]
CN(c1ccc([C@H]2CCC[C@@H](C(=O)Nc3ccc(C(F)(F)F)cc3F)[C@@H]2C(=O)O)cc1)S(=O)(=O)c1ccc(-n2cccn2)cc1 [Example 98, (1R,2R,6S)-2-((2-fluoro-4-(trifluoromethyl)phenyl)carbamoyl)-6-(4-((N-methyl-4-(1H-pyrazol-1-yl)phenyl)sulfonamido)phenyl)cyclohexane-1-carboxylic acid]	8.6			5.5				
